Assays:
[1] = Crystalline form analysis of dried film by X-ray diffractometry (Test Example 4); assay type: physicochemical; settings: raw material powder or dried film from the film coating solution
Procedure: Each film coating solution prepared in Examples 2 and 7 and Comparative Example 2 was sprayed on a Petri dish and dried to form a film. These films were collected, and crystalline forms thereof were analyzed using an X-ray diffractometer (D8 Advance, Bruker) with Cu X-ray radiation at a voltage of 40 kV, at a current of 100 mA, and with a scan rate of 3 deg/min. The results of the X-ray diffractometry of finasteride powder as a raw material, and the dried films prepared using the film coating solutions of Examples 2 and 7 and Comparative Example 2 are shown in FIG. 5.

[2] = Solubility test of finasteride and coating materials (visual observation); assay type: physicochemical; settings: organic solvent-water mixture solvents of Comparative Example 1, 2, 5, 6, and 7; visually observed
Procedure: Finasteride, Kollicoat® IR, povidone, and polyvinyl alcohol were added to the organic solvent-water mixture solvents in a variety of ratios presented in Tables 1 to 4, and it was visually observed whether finasteride, Kollicoat® IR, povidone, and polyvinyl alcohol were soluble or not in each of the organic solvent-water mixture solvents.

crystalline form [1]: crystalline
soluble or not [2]: insoluble
SMILES: CC(C)(C)NC(=O)[C@H]1CC[C@H]2[C@@H]3CC[C@H]4NC(=O)C=C[C@]4(C)[C@H]3CC[C@]12C [Finasteride, finasteride]
